Active and inactive are the calls of the source. How the calls were made is not given here.
target: glucose-6-phosphate dehydrogenase-6-phosphogluconolactonase (Plasmodium falciparum 3D7); experiment: inhibition of P. falciparum G6PD activity – biochemical, kinetic NADPH detection, orthogonal assay, dose response (AID 540269); settings: purified PfG6PD-6PGL

Structure (SMILES) | IC50
COc1cc(Sc2ccc(C)cc2)c(OC)cc1N | > 80 µM (inactive)
Cn1c(=O)[nH]c(=O)c2c1nc([N+](=O)[O-])n2Cc1ccccc1 | > 80 µM (inactive)
CCc1ccccc1N1CSC2=C(C#N)C(c3ccccc3F)CC(=O)N2C1 (centres undefined) | > 80 µM (inactive)
C[C@]12CC[C@@H]3c4cc(O)c(O)cc4CC[C@H]3[C@@H]1CC[C@@H]2O | 25 µM
CCN1CCN(c2nc(C)nc3c2sc(=S)n3C)CC1 | > 80 µM (inactive)
c1nc(SSc2ncnc3nc[nH]c23)c2[nH]cnc2n1 | 27 µM
Cc1cc(C)c(S(=O)(=O)Nc2cc(SCC(=O)O)c(O)c3ccccc23)cc1C | 41.4 µM
NC(=O)N/N=C/c1ccc(-n2nncc2-c2ccc(Cl)cc2)cc1 | > 80 µM (inactive)
Cc1cccc(C(=O)Nc2nnc(S(=O)(=O)N3CCOCC3)s2)c1 | 59.4 µM
O=C(CNC(=O)c1cccs1)NCC(=O)OCC(=O)c1ccc([N+](=O)[O-])cc1 | 62.9 µM
Nn1c(CSc2nc3ccccc3o2)nnc1CSc1nc2ccccc2o1 | > 80 µM (inactive)
COC1=C(N)C(=O)c2nc(C)ccc2C1=O | > 80 µM (inactive)
CN1CCN(C(=S)c2ccc(Br)cc2)CC1 | > 80 µM (inactive)
Oc1cc(-n2cccn2)c(O)cc1-n1cccn1 | 68.8 µM
CC(C)c1nnc(NC(=O)c2cc3ccccc3o2)s1 | 31.2 µM
Cc1noc(C(=O)Nc2sc3c(c2C#N)CCC3)c1Cl | > 80 µM (inactive)
O=C1CCC[C@@H]2[C@@H](Cc3ccccc3)[C@H](N3CCN(c4ccccc4)CC3)C[C@@H]3CCN1[C@@H]32 | > 80 µM (inactive)

Structure (SMILES) | IC50
O=C(CNc1ccc2c(c1)OCO2)N/N=C\c1cn(Cc2ccccc2)c2ccccc12 | > 80 µM (inactive)
O=c1[nH]c2ccc(NCc3ccccc3OCc3ccc(Cl)cc3)cc2[nH]1 | > 80 µM (inactive)
c1cc2c(cc1NC1CCCCCC1)OCO2 | > 80 µM (inactive)
COc1c(O)ccc2c1CN1CCc3cc4c(cc3C1C2)OCO4 (centres undefined) | > 80 µM (inactive)
O=[N+]([O-])c1cccc(SSc2cccc([N+](=O)[O-])c2)c1 | 71.5 µM
CCN(CC)CCNC(=O)CCCCn1c(=S)[nH]c2c([nH]c3ccc(OC)cc32)c1=O | 15.7 µM
N#Cc1ccc(Oc2cccc3cccnc23)c([N+](=O)[O-])c1 | > 80 µM (inactive)
Cc1ccc(/C=C/C(=O)NCCc2cccc(Cl)c2)o1 | > 80 µM (inactive)
COc1cc(NCCCn2ccc(NC(=O)OCc3ccccc3)nc2=O)cc(OC)c1OC | > 80 µM (inactive)
COC(=O)C1=C(C(=O)OC)SC2(S1)C(C(=O)OC)=C(C(=O)OC)Sc1c2ssc1=O | > 80 µM (inactive)
C[n+]1c(-c2ccccc2)cc2c(=Cc3ccc([N+](=O)[O-])cc3)c3ccccc3n21 | 51.5 µM
COc1cc(/C=C2\SC(c3ccc(C)cc3)=NC2=O)cc(OC)c1O | > 80 µM (inactive)
CN1CCN(C(=S)c2ccc([N+](=O)[O-])cc2)CC1 | > 80 µM (inactive)
CCN1CCCC1CNC(=O)c1ccc2c(c1)NC(=O)/C(=C\c1ccccc1Cl)S2 (centres undefined) | 8.01 µM
COc1cc(/C=C2\SC(c3ccc(C)cc3)=NC2=O)ccc1O | > 80 µM (inactive)
CC1=C(O)C(=O)C=C2C1=CC=C1C2(C)CCC2(C)C3CC(C)(C(=O)O)CCC3(C)CCC12C (centres undefined) | 45.7 µM
CCCN1CCc2cccc3c2[C@H]1Cc1ccc(O)c(O)c1-3 | > 80 µM (inactive)

Source: PubChem BioAssay AID540269 (Sanford-Burnham Center for Chemical Genomics, 2011)
